How the values were obtained:
BRD2 = BRD2 (Homo sapiens (Human), UniProt P25440); experiment: TR-FRET in-vitro binding assay for BRD2; details: 45 nM His-Brd2(60-472), acetyl-histone H4 (AcK 5, 8, 12, 16) peptide
Experimental: TR-FRET In-Vitro Binding Assays for BRD2, BRD3, and BRD4: All assays were performed in 384-well microtiter plates. […] Liquid handling and incubation steps were done on an Innovadyne Nanodrop Express equipped with a robotic arm (Thermo CatX, Perkin Elmer/Caliper Twister II) and an incubator (Liconic STX40, Thermo Cytomat 2C450). The assay plates were prepared by addition of 50 nl per well of compound solution in 90% DMSO HummingBird nanodispenser (Zinsser Analytic). […] Reactions were incubated at 30° C. for 35 minutes. […] After 35 minutes incubation at 30° C., plates were measured in a Perkin Elmer EnVision multilabel reader. […] The stock solutions were stored at […] if not used immediately. For the test procedure the vials were defrosted and identified by a scanner whereby a working sheet was generated that guided the subsequent working steps. Compound dilutions were made in 96 well plates. This format enabled the assay of maximally […] at 8 concentrations (single points) including 4 reference compounds, if desired (known BET inhibitors from the prior art, for this and other assays of the type disclosed herein). The dilution protocol included the production of “pre-dilution plates”, “master plates” and “assay plates”. Polypropylene 96-well plates were used as pre-dilution plates. […] All dilution steps were done on a HamiltonSTAR robot. […] Identical “assay plates” were then prepared by pipetting 50 nL each of compound dilutions of the “master plates” into 384-well “assay plates” by means of a HummingBird 384-channel dispenser. These plates were used directly for the assay which was performed in a total volume of 13.55 μL.

K-562 = experiment: Cell growth inhibition assay (CellTiter-Glo), K-562; format: cell-based, human; details: K-562 cells, 4 days; for GI50: Homo sapiens, K562, 96 h, half-maximal growth inhibition; for K-562 TGI: total growth inhibition
Method in brief: (§1)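 Cells were exposed 4 days at 37 °C, 5% CO2 to 3-fold serial dilutions starting at 10 μM (0.1% DMSO vehicle). Viability was measured as ATP by CellTiter-Glo luminescence, corrected for background and a day-0 plate. IC50 and TGI were derived by four-parameter fitting.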

THP-1 = experiment: Cell growth inhibition assay (CellTiter-Glo), THP-1; format: cell-based, human; details: THP-1 cells, 4 days; for GI50: Homo sapiens, 96 h, half-maximal growth inhibition; for THP-1 TGI: total growth inhibition
Method in brief: as §1

MV-4-11 = experiment: Cell growth inhibition assay (CellTiter-Glo), MV-4-11; format: cell-based, human; details: MV-4-11 cells, 4 days; for GI50: Homo sapiens, MV4-11, 96 h, half-maximal growth inhibition; for MV-4-11 TGI: total growth inhibition
Method in brief: as §1

CREBBP = CREBBP (Homo sapiens (Human), UniProt Q92793); experiment: AlphaScreen in-vitro binding assay for CREBBP; details: 324 nM His-CREBBP (1081-1197), acetyl-histone H4 (AcK 5, 8, 12) peptide
Method in brief: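 IC50 values were derived by non-linear regression of percent inhibition across 8 compound concentrations. Protein was His-tagged CREBBP bromodomain (1081-1197), peptide acetyl-histone H4 (AcK 5, 8, 12), in HEPES pH 7.5 buffer. Read-out was AlphaScreen with Ni-chelate acceptor and streptavidin donor beads, 35 min at 30° C then 60 min at RT.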

BRD4 = BRD4 (Homo sapiens (Human), UniProt O60885); experiment: TR-FRET in-vitro binding assay for BRD4; details: 45 nM His-Brd4(44-477), acetyl-histone H4 (AcK 5, 8, 12, 16) peptide
Method in brief: (§2)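 Binding is detected by TR-FRET following incubation for 35 minutes at 30° C.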

BRD3 = BRD3 (Homo sapiens (Human), UniProt Q15059); experiment: TR-FRET in-vitro binding assay for BRD3; details: 45 nM His-Brd3(20-477), acetyl-histone H4 (AcK 5, 8, 12, 16) peptide
Method in brief: as §2

Sequence of BRD2 (P25440 60-472): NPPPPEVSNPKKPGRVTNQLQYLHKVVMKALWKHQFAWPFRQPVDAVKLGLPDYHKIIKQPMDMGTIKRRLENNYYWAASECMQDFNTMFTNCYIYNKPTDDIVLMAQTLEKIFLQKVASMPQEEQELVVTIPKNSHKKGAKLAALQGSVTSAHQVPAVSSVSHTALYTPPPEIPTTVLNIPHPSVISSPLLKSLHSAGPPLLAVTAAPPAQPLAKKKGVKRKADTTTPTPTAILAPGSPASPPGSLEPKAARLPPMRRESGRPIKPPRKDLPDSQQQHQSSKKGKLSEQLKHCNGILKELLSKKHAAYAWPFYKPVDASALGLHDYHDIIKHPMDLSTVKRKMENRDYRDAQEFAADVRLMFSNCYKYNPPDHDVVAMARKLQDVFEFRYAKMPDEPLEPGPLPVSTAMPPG
Sequence of BRD3 (Q15059 20-477): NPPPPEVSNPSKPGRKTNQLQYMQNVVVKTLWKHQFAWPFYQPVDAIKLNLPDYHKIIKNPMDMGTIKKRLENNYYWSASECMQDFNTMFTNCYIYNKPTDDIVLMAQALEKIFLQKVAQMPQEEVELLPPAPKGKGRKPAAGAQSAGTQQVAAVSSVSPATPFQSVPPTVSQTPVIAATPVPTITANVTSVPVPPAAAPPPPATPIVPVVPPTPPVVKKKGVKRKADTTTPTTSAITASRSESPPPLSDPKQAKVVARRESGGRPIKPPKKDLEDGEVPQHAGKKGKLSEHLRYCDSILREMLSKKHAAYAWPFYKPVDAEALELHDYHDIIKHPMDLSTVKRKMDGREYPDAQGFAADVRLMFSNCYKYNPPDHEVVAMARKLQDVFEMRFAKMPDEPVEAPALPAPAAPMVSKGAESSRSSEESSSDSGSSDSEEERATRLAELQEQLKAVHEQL
Sequence of CREBBP (Q92793 1081-1197): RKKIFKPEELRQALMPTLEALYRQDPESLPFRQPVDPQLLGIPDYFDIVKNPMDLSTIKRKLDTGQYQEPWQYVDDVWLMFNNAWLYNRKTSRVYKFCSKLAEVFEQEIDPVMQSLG

Row | SMILES | IC50 (BRD2) [µM] | GI50 (K-562) [µM] | GI50 (THP-1) [µM] | GI50 (MV-4-11) [µM] | IC50 (CREBBP) [µM] | IC50 (BRD4) [µM] | IC50 (BRD3) [µM] | K-562 TGI (K-562) [µM] | THP-1 TGI (THP-1) [µM] | MV-4-11 TGI (MV-4-11) [µM]
1 | COCn1cc(C)c2c1C(c1ccc(Cl)cc1)N(c1cc(C)c3nnn(C)c3n1)C2=O (centres unmarked) [Example 2, 6-(4-chlorophenyl)-5-(3,7-dimethyl-3H-[1,2,3]triazolo[4,5-b]pyridin-5-yl)-1-(methoxymethyl)-3-methyl-5,6-dihydropyrrolo[3,4-b]pyrrol-4(1H)-one] | 0.023 | 0.0621 | 0.0151 | 0.00766 | > 37 | 0.012 | 0.016 | >10 | 0.0347 | 0.0197
2 | Cc1c[nH]c2c1C(=O)N(c1cc(C)c3nnc(C)n3c1)C2c1ccc(Cl)cc1 (centres unmarked) [Example 3, 6-(4-chlorophenyl)-5-(3,8-dimethyl-[1,2,4]triazolo[4,3-a]pyridin-6-yl)-3-methyl-5,6-dihydropyrrolo[3,4-b]pyrrol-4(1H)-one] | 0.024 | 0.0554 | 0.0157 | 0.00768 | 8.2 | 0.014 | 0.016 | >10 | 0.0369 | 0.01875
3 | Cc1cn(C2CN(C)C2)c2c1C(=O)N(c1cc(C)c3nnc(C)n3c1)C2c1ccc(Cl)cc1 (centres unmarked) [Example 5, 6-(4-chlorophenyl)-5-(3,8-dimethyl-[1,2,4]triazolo[4,3-a]pyridin-6-yl)-3-methyl-1-(1-methylazetidin-3-yl)-5,6-dihydropyrrolo[3,4-b]pyrrol-4(1H)-one] | 0.045 | 0.0478 | 0.0121 | 0.0063 | 6.3 | 0.024 | 0.025 | >10 | 0.0362 | 0.01305
4 | Cc1cn(C2COC2)c2c1C(=O)N(c1cc(C)c3nnc(C)n3c1)C2c1ccc(Cl)cc1 (centres unmarked) [Example 6, 6-(4-chlorophenyl)-5-(3,8-dimethyl-[1,2,4]triazolo[4,3-a]pyridin-6-yl)-3-methyl-1-(oxetan-3-yl)-5,6-dihydropyrrolo[3,4-b]pyrrol-4(1H)-one] | 0.04 | 0.0505 | 0.0106 | 0.00674 | 6 | 0.017 | 0.023 | >10 | 0.02925 | 0.0214
5 | CC(=O)N1CC(n2cc(C)c3c2C(c2ccc(Cl)cc2)N(c2cc(C)c4nnc(C)n4c2)C3=O)C1 (centres unmarked) [Example 7, 1-(1-acetylazetidin-3-yl)-6-(4-chlorophenyl)-5-(3,8-dimethyl-[1,2,4]triazolo[4,3-a]pyridin-6-yl)-3-methyl-5,6-dihydropyrrolo[3,4-b]pyrrol-4(1H)-one] | 0.032 | 2.06 | 0.196 | 0.0502 | 7.6 | 0.017 | 0.016 | >10 | 0.4495 | 0.1358
6 | CCOC(=O)N1CC(n2cc(C)c3c2C(c2ccc(Cl)cc2)N(c2cc(C)c4nnc(C)n4c2)C3=O)C1 (centres unmarked) [Example 8, Ethyl 3-(6-(4-chlorophenyl)-5-(3,8-dimethyl-[1,2,4]triazolo[4,3-a]pyridin-6-yl)-3-methyl-4-oxo-5,6-dihydropyrrolo[3,4-b]pyrrol-1(4H)-yl)azetidine-1-carboxylate] | 0.041 | 0.132 | 0.0416 | 0.0252 | 5.1 | 0.018 | 0.034 | >10 | 0.09395 | 0.03775
7 | CNC(=O)n1cc(C)c2c1C(c1ccc(Cl)cc1)N(c1cc(C)c3nnc(C)n3c1)C2=O (centres unmarked) [Example 9, 6-(4-chlorophenyl)-5-(3,8-dimethyl-[1,2,4]triazolo[4,3-a]pyridin-6-yl)-N,3-dimethyl-4-oxo-5,6-dihydropyrrolo[3,4-b]pyrrole-1(4H)-carboxamide] | 0.028 | 0.0787 | 0.0171 | 0.013 | 6 | 0.024 | 0.015 | >10 | 0.0433 | 0.02675
8 | Cc1cn(C(=O)N(C)C)c2c1C(=O)N(c1cc(C)c3nnc(C)n3c1)C2c1ccc(Cl)cc1 (centres unmarked) [Example 10, 6-(4-chlorophenyl)-5-(3,8-dimethyl-[1,2,4]triazolo[4,3-a]pyridin-6-yl)-N,N,3-trimethyl-4-oxo-5,6-dihydropyrrolo[3,4-b]pyrrole-1(4H)-carboxamide] | 0.055 | 0.102 | 0.0298 | 0.0194 | 14.5 | 0.033 | 0.034 | >10 | 0.06985 | 0.03625

Now from value to compound, other results behind:

Row | IC50 (BRD2) [µM] | GI50 (K-562) [µM] | GI50 (THP-1) [µM] | GI50 (MV-4-11) [µM] | IC50 (CREBBP) [µM] | IC50 (BRD4) [µM] | IC50 (BRD3) [µM] | SMILES | K-562 TGI (K-562) [µM] | THP-1 TGI (THP-1) [µM] | MV-4-11 TGI (MV-4-11) [µM]
9 | 0.039 | 0.113 | 0.026 | 0.0187 | 7.3 | 0.038 | 0.05 | CCOC(=O)n1cc(C)c2c1C(c1ccc(Cl)cc1)N(c1cc(C)c3nnc(C)n3c1)C2=O (centres unmarked) [Example 11, Ethyl 6-(4-chlorophenyl)-5-(3,8-dimethyl-[1,2,4]triazolo[4,3-a]pyridin-6-yl)-3-methyl-4-oxo-5,6-dihydropyrrolo[3,4-b]pyrrole-1(4H)-carboxylate] | >10 | 0.05895 | 0.03155
10 | 0.08 | 1.05 | 0.219 | 0.0748 | 23.9 | 0.054 | 0.052 | COCC(=O)N1CC(n2cc(C)c3c2C(c2ccc(Cl)cc2)N(c2cc(C)c4nnc(C)n4c2)C3=O)C1 (centres unmarked) [Example 12, 6-(4-chlorophenyl)-5-(3,8-dimethyl-[1,2,4]triazolo[4,3-a]pyridin-6-yl)-1-(1-(2-methoxyacetyl)azetidin-3-yl)-3-methyl-5,6-dihydropyrrolo[3,4-b]pyrrol-4(1H)-one] | >10 | 0.6185 | 0.149
11 | 0.052 | 0.25 | 0.0764 | 0.0439 | 0.24 |  |  | Cn1cc(-c2cc3c(n2C2CC2)C(c2ccc(Cl)cc2)N(c2cc(Cl)c(=O)n(C)c2)C3=O)ccc1=O (centres unmarked) [Example 66, 5-(5-chloro-1-methyl-6-oxo-1,6-dihydropyridin-3-yl)-6-(4-chlorophenyl)-1-cyclopropyl-2-(1-methyl-6-oxo-1,6-dihydropyridin-3-yl)-5,6-dihydropyrrolo[3,4-b]pyrrol-4(1H)-one] | >10 | 0.135 | 0.08745
12 | 0.031 | 0.241 | 0.045 | 0.0199 | 5.2 |  |  | CC(=O)Nc1cn(C)c2c1C(=O)N(c1cc(C)c3nnc(C)n3c1)C2c1ccc(Cl)cc1 (centres unmarked) [Example 103, N-(6-(4-chlorophenyl)-5-(3,8-dimethyl-[1,2,4]triazolo[4,3-a]pyridin-6-yl)-1-methyl-4-oxo-1,4,5,6-tetrahydropyrrolo[3,4-b]pyrrol-3-yl)acetamide] | >10 | 0.119 | 0.0526

From US9550796B2, “Pyrrolopyrrolone derivatives and their use as BET inhibitors” (NOVARTIS AG, priority 2013, dated 2017)
